# Experimental data published in US20060014987A1, “Synthesis of beta-elemene, intermediates thereto, analogues and uses thereof” (priority 2003, published 2006).
# Experiments:
# [1] = test system: human brain tumor, A-127; assay: MTT assay, anti tumor activities of derivatives; type: cell-based
# [2] = test system: SHG-44 Human Brain Glioma (Subcutaneous Inoculation); conditions: positive control, 30 mg/kg once a day for 7 days
# [3] = test system: recurrent anaplastic astrocytoma; conditions: cited from earlier work
# [4] = test system: G422 mice glioma (intracranial inoculation); assay: Intracranial inoculation, survival; type: in vivo; conditions: positive control, i.p. 5 mg/kg once a day for 7 days
# Description: Each experiment was repeated three times.
# Intracranial inoculation: Scientists took aseptically G422 tumor from well-growing mice to prepare 2×10^7 cells/ml suspension by even protoplasm method. Mice were inoculated intracranially with 0.05 ml suspension. Treatment started the day after the inoculation. Animal survival time was recorded for 30 days.
# [5] = test system: glioblastoma; conditions: after treatment with this drug; cited from earlier work
# [6] = test system: liver cancer cell SMMC; conditions: Elemene at 20 ug/ml; cited from earlier work
# [7] = test system: Human hepatic cancer BEL-7402 cell line; conditions: after 6 weeks of induction with Elemene at 48.9 ug/ml; cited from earlier work
# [8] = 3H labeled, injected intravenously or taken orally; cited from earlier work
# [9] = test system: tumor cells; conditions: in vitro; cited from earlier work
# [10] = test system: MDR1 mRNA in CEM.ADM cells; assay: MDR1 mRNA by Rt-PCR
# [11] = test system: MDR cell line CEM/ADM; assay: MDR reversal, MTT method
# [12] = test system: sensitive parental cell line CEM; assay: IC50 and drug accumulation in the sensitive line
# [13] = test system: SKOV3/CIS cells; conditions: cited from earlier work
# [14] = test system: CEM/ADM cells; assay: Intracellular drug accumulation; conditions: verapamil at 7.5 ug/ml
smiles,measurement,setting,value
"C=C[C@]1(C)CC[C@@H](C(C)(O)CO)C[C@H]1C(=C)C (single isomer, unassigned) [LR1, (R or S)-2-((1R,3S,4S)-3-Isopropenyl-4-methyl-4-vinyl-cyclohexyl)-propane-1,2-diol]",IC50,[1]; 24 Hour,176 µg/mL
same,IC50,[1]; 48 Hour,163 µg/mL
same,IC50,[1]; 72 Hour,133 µg/mL
"O=P1(N(CCCl)CCCl)NCCCO1 (stereo not shown) [CTX, cyclo-phosphate acylamine]",TIR Experiment 1,[2],83.16%
same,TIR Experiment 2,[2],88.54%
same,Tumor Weight (g) Experiment 1,[2],0.33 ± 0.10 g
same,Tumor Weight (g) Experiment 2,[2],0.22 ± 0.04 g
same,Tumor Weight (g) Experiment 3,[2],0.23 ± 0.05 g
"Cn1nnc2c(C(N)=O)ncn2c1=O [TEMODAR, temozolomide]",CR+PR rate,[3]; brain tumor patients,20%
same,complete responses,"[3]; human, in vivo",9%
same,overall tumor response rate,"[3]; human, in vivo",22%
same,partial responses,"[3]; human, in vivo",13%
COc1cc([C@@H]2c3cc4c(cc3[C@@H](O[C@@H]3O[C@@H]5CO[C@@H](c6cccs6)O[C@H]5[C@H](O)[C@H]3O)[C@H]3COC(=O)[C@H]23)OCO4)cc(OC)c1O [VM-26],LPR Experiment 1,[4],183.24%
same,LPR Experiment 2,[4],168.75%
same,LPR Experiment 3,[4],171.2%
same,Mean Survival Time (Days) Experiment 1,[4],24.5 ± 6.0 days
same,Mean Survival Time (Days) Experiment 2,[4],25.8 ± 5.1 days
same,Mean Survival Time (Days) Experiment 3,[4],25.9 ± 4.7 days
same,animals alive at the end / at the beginning of the treatment (n/m),[4],VM-26 (4/10)
"C=C[C@]1(C)CC[C@@H](C(=C)C)C[C@H]1C(=C)C [beta-elemene, (−)-beta-elemene]",longest survival time of a glioblastoma patient,[5],62 months
same,G0/G1 to S phase transition,[6],blocked G0/G1 to S phase transition
same,expression of MDR1 mRNA or P-glycoprotein (P-gp),[7],did not express MDR1 mRNA or P-glycoprotein (P-gp)
same,passage of the blood brain barrier (BBB),[8],Radioactivity was detected in animals' brain
same,IC50 for tumor cells,[9],20 to 50 µg/mL
same,quantity of MDR1 mRNA,[10],no quantity change
same,dose modifying factor (DMF) for DAU,[11]; beta-elemene at 3 ug/ml,1.79
same,dose modifying factor (DMF) for VCR,[11]; beta-elemene at 3 ug/ml,1.60
same,dose modifying factor (DMF) for ADM,"[11]; beta-elemene at 3 ug/ml, IC50 without/with MDR modulator",1.84
same,effect on IC50 values and drug accumulations,[12],no effect
COc1ccc(CCN(C)CCCC(C#N)(c2ccc(OC)c(OC)c2)C(C)C)cc1OC (stereo not shown) [verapamil],enhancement of the sensitivity of SKOV3/CIS to doxorubicin,[13],260 fold
same,DMF of ADM,[11]; verapamil at 7.5 ug/ml,2.02
same,DMF of DAU,[11]; verapamil at 7.5 ug/ml,2.13
same,DMF of VCR,[11]; verapamil at 7.5 ug/ml,1.95
same,"intracellular accumulations of ADM, DAU and VCR versus negative controls",[14],about 2 times
